Reference: patent US12187816B2, “Macrocyclic compounds and methods of use thereof” (Genentech, Inc., priority 2020, dated 2025)
Starred links: 1 amine or outer side, 2 acyl side, 3 side chain; linkers in the order of their positions; H or OH if unused. Positions of bridges follow the written chain, without caps; N, C: chain ends. Non-standard residues stand in square brackets, D forms with d. Residues, ends and D or L forms follow the SMILES beside them. *: point of attachment. JQ1acid = Cc1sc2c(c1C)C(c1ccc(Cl)cc1)=N[C@@H](CC(=O)*)c1nnc(C)n1-2; dPhg(4-(4-Me-thiazol-5-yl)) = Cc1ncsc1-c1ccc([C@@H](N)C(=O)O)cc1; Phg(4-(4-Me-thiazol-5-yl)) = Cc1ncsc1-c1ccc([C@H](N)C(=O)O)cc1; X2 = COc1ccc2c(c1)C(c1ccc(Cl)cc1)=N[C@@H](CC(=O)*)c1nnc(C)n1-2; X1 = CC(C)(C)[C@@H](C(=O)[*:2])n1cc(COCCN[*:1])nn1; X9 = O=C(C[C@@H](Cc1ccc(-c2ccccc2)cc1)N[*:1])[*:2]; X6 = Cc1ncsc1-c1ccc([C@H](CC(=O)[*:2])N[*:1])cc1; dDap(Me) = CN(C[C@@H](N[*:1])C(=O)[*:2])[*:3]; Bip = N[C@@H](Cc1ccc(-c2ccccc2)cc1)C(=O)O; dBip = N[C@H](Cc1ccc(-c2ccccc2)cc1)C(=O)O; dLys(N3) = [N-]=[N+]=NCCCC[C@@H](N)C(=O)O; NHCH2CH2SCH2CO = O=C(CSCCN[*:1])[*:2]; Ile(3-Me) = CCC(C)(C)[C@H](N)C(=O)O; Hyp = O=C(O)[C@@H]1C[C@@H](O)CN1; Tle = CC(C)(C)[C@H](N)C(=O)O; X8 = CN(CCOCC(=O)[*:2])[*:1]; d(hCys) = N[C@H](CCS)C(=O)O; dDap = NC[C@@H](N)C(=O)O; Dap = NC[C@H](N)C(=O)O; Ahx = NCCCCCC(=O)O; AEA = NCCOCC(=O)O; βAla = NCCC(=O)O

molecular target: T1, BRD4 (Homo sapiens, UniProt O60885); assay: BRD4 degradation assay in EOL1 cells (immunofluorescence imaging); assay type: cell-based; settings: EoL-1 eosinophilic leukemia cells, 4 hours treatment, nuclear BRD4 immunofluorescence
T1 construct: Mean 488 intensity of BRD4 quantitated in nuclear region; endogenous in cells; host or cells: EoL-1 eosinophilic leukemia cells
Method in brief: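 EoL-1 cells treated 4 h at 37 °C with 20-point 1/3 serial dilutions (0.2% DMSO) in RPMI/10% FBS, then fixed and immunostained for BRD4. Mean nuclear BRD4 intensity measured by high-content imaging, with Hoechst nuclear masking. DMSO and no-primary-antibody controls define 0 and 100%; DC50 and maximal effect from dose-response fit.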

Structure (SMILES)	DC50 [µM]
Cc1sc2c(c1C)C(c1ccc(Cl)cc1)=N[C@@H](CC(=O)NC[C@H]1NC(=O)CNC(=O)[C@@H](Cc3ccc(-c4ccccc4)cc3)NC(=O)[C@@H]3C[C@@H](O)CN3C(=O)[C@H](C(C)(C)C)NC(=O)CSC[C@H](C(N)=O)NC1=O)c1nnc(C)n1-2 [Compound 18] ({CH2CO}-[Tle][Hyp][dBip]G[dDap](JQ1acid)[dC]-NH2; thioether N-6)	< 1
Cc1sc2c(c1C)C(c1ccc(Cl)cc1)=N[C@@H](CC(=O)NC[C@H]1NC(=O)[C@@H](C)NC(=O)[C@@H](Cc3ccc(-c4ccccc4)cc3)NC(=O)[C@@H]3C[C@@H](O)CN3C(=O)[C@H](C(C)(C)C)NC(=O)CCCCCNC1=O)c1nnc(C)n1-2 [Compound 60] (cyclo([Ahx][Tle][Hyp][dBip][dA][dDap](JQ1acid)))	< 0.05
Cc1sc2c(c1C)C(c1ccc(Cl)cc1)=N[C@@H](CC(=O)NC[C@H]1CCCNC(=O)[C@@H](Cc3ccc(-c4ccccc4)cc3)NC(=O)[C@@H]3C[C@@H](O)CN3C(=O)[C@H](C(C)(C)C)n3cc(nn3)COCCNC1=O)c1nnc(C)n1-2 [Compound 206]	< 0.05
Cc1ncsc1-c1ccc([C@H]2NC(=O)[C@@H]3C[C@@H](O)CN3C(=O)[C@H](C(C)(C)C)NC(=O)CSCC[C@H](C(N)=O)NC(=O)[C@@H](CNC(=O)C[C@@H]3N=C(c4ccc(Cl)cc4)c4c(sc(C)c4C)-n4c(C)nnc43)NC(=O)CCNC2=O)cc1 [Compound 5] ({CH2CO}-[Tle][Hyp][dPhg(4-(4-Me-thiazol-5-yl))][βAla][dDap](JQ1acid)[d(hCys)]-NH2; thioether N-6)	< 20
Cc1ncsc1-c1ccc([C@H]2NC(=O)[C@@H]3C[C@@H](O)CN3C(=O)[C@H](C(C)(C)C)NC(=O)CSC[C@H](C(N)=O)NC(=O)[C@H](CNC(=O)C[C@@H]3N=C(c4ccc(Cl)cc4)c4c(sc(C)c4C)-n4c(C)nnc43)NC(=O)CNC2=O)cc1 [Compound 13] ({CH2CO}-[Tle][Hyp][dPhg(4-(4-Me-thiazol-5-yl))]G[Dap](JQ1acid)[dC]-NH2; thioether N-6)	> 20
Cc1sc2c(c1C)C(c1ccc(Cl)cc1)=N[C@@H](CC(=O)NC[C@H]1NC(=O)[C@@H](C)NC(=O)[C@@H](Cc3ccc(-c4ccccc4)cc3)NC(=O)[C@@H]3C[C@@H](O)CN3C(=O)[C@H](C(C)(C)C)NC(=O)COCCNC1=O)c1nnc(C)n1-2 [Compound 41] (cyclo([AEA][Tle][Hyp][dBip][dA][dDap](JQ1acid)))	< 0.05
Cc1ncsc1-c1ccc([C@H]2NC(=O)[C@@H]3C[C@@H](O)CN3C(=O)[C@H](C(C)(C)C)NC(=O)CSC[C@H](C(N)=O)NC(=O)[C@@H](CN(C)C(=O)C[C@@H]3N=C(c4ccc(Cl)cc4)c4c(sc(C)c4C)-n4c(C)nnc43)NC(=O)CNC2=O)cc1 [Compound 29] ({CH2CO}-[Tle][Hyp][dPhg(4-(4-Me-thiazol-5-yl))]G[dDap(Me)](JQ1acid)[dC]-NH2; thioether N-6)	< 20
Cc1ncsc1-c1ccc([C@@H]2NC(=O)[C@@H]3C[C@@H](O)CN3C(=O)[C@H](C(C)(C)C)NC(=O)CCCCCNC(=O)[C@@H](CNC(=O)C[C@@H]3N=C(c4ccc(Cl)cc4)c4c(sc(C)c4C)-n4c(C)nnc43)NC(=O)CNC2=O)cc1 [Compound 39] (cyclo([Ahx][Tle][Hyp][Phg(4-(4-Me-thiazol-5-yl))]G[dDap](JQ1acid)))	< 1
Cc1ncsc1-c1ccc([C@@H]2CC(=O)NCC(=O)N[C@H](CNC(=O)C[C@@H]3N=C(c4ccc(Cl)cc4)c4c(sc(C)c4C)-n4c(C)nnc43)C(=O)NCCOCC(=O)N[C@@H](C(C)(C)C)C(=O)N3C[C@H](O)C[C@H]3C(=O)N2)cc1 [Compound 54] (cyclo([AEA][Tle][Hyp][X6]G[dDap](JQ1acid)))	< 0.05
Cc1ncsc1-c1ccc([C@@H]2NC(=O)[C@@H]3C[C@@H](O)CN3C(=O)[C@H](C(C)(C)C)NC(=O)COCCNC(=O)[C@@H](CNC(=O)C[C@@H]3N=C(c4ccc(Cl)cc4)c4c(sc(C)c4C)-n4c(C)nnc43)NC(=O)[C@H](C)NC2=O)cc1 [Compound 35] (cyclo(A[dDap](JQ1acid)[AEA][Tle][Hyp][Phg(4-(4-Me-thiazol-5-yl))]))	> 20
COc1ccc2c(c1)C(c1ccc(Cl)cc1)=N[C@@H](CC(=O)NC[C@H]1NC(=O)CNC(=O)[C@H](c3ccc(-c4scnc4C)cc3)NC(=O)[C@@H]3C[C@@H](O)CN3C(=O)[C@H](C(C)(C)C)NC(=O)CSC[C@H](C(N)=O)NC1=O)c1nnc(C)n1-2 [Compound 51] ({CH2CO}-[Tle][Hyp][Phg(4-(4-Me-thiazol-5-yl))]G[dDap](X2)[dC]-NH2; thioether N-6)	> 20

The next lines start with the values.

DC50 [µM]	Structure (SMILES)
< 0.05	Cc1sc2c(c1C)C(c1ccc(Cl)cc1)=N[C@@H](CC(=O)NC[C@H]1NC(=O)[C@@H](C(C)C)NC(=O)[C@@H](Cc3ccc(-c4ccccc4)cc3)NC(=O)[C@@H]3C[C@@H](O)CN3C(=O)[C@H](C(C)(C)C)n3cc(nn3)COCCNC1=O)c1nnc(C)n1-2 [Compound 202] (cyclo([Hyp][dBip][dV][dDap](JQ1acid)[X1]))
< 1	Cc1sc2c(c1C)C(c1ccc(Cl)cc1)=N[C@@H](CC(=O)NC[C@H]1NC(=O)[C@@H](CCCCN=[N+]=[N-])NC(=O)[C@@H](Cc3ccc(-c4ccccc4)cc3)NC(=O)[C@@H]3C[C@@H](O)CN3C(=O)[C@H](C(C)(C)C)NC(=O)COCCNC1=O)c1nnc(C)n1-2 [Compound 71] (cyclo([AEA][Tle][Hyp][dBip][dLys(N3)][dDap](JQ1acid)))
< 20	Cc1sc2c(c1C)C(c1ccc(Cl)cc1)=N[C@@H](CC(=O)NC[C@H]1NC(=O)CNC(=O)[C@@H](C)NC(=O)[C@@H]3C[C@@H](O)CN3C(=O)[C@H](C(C)(C)C)NC(=O)CSC[C@H](C(N)=O)NC1=O)c1nnc(C)n1-2 [Compound 8] ({CH2CO}-[Tle][Hyp][dA]G[dDap](JQ1acid)[dC]-NH2; thioether N-6)
< 0.05	Cc1sc2c(c1C)C(c1ccc(Cl)cc1)=N[C@@H](CC(=O)NC[C@H]1NC(=O)[C@@H](C)NC(=O)[C@@H](Cc3ccc(-c4ccccc4)cc3)NC(=O)[C@@H]3C[C@@H](O)CN3C(=O)[C@H](C(C)(C)C)NC(=O)COCCN(C)C1=O)c1nnc(C)n1-2 [Compound 63] (cyclo([Hyp][dBip][dA][dDap](JQ1acid)[X8][Tle]))
< 20	Cc1ncsc1-c1ccc([C@H]2NC(=O)[C@@H]3C[C@@H](O)CN3C(=O)[C@H](C(C)(C)C)NC(=O)CNC(=O)[C@H](CCC(N)=O)NC(=O)[C@@H](CNC(=O)C[C@@H]3N=C(c4ccc(Cl)cc4)c4c(sc(C)c4C)-n4c(C)nnc43)NC(=O)CNC2=O)cc1 [Compound 6] (cyclo(G[Tle][Hyp][dPhg(4-(4-Me-thiazol-5-yl))]G[dDap](JQ1acid)Q))
> 20	COc1ccc(C[C@@H]2NC(=O)[C@@H]3C[C@@H](O)CN3C(=O)[C@H](C(C)(C)C)NC(=O)CSC[C@H](C(N)=O)NC(=O)[C@@H](CNC(=O)C[C@@H]3N=C(c4ccc(Cl)cc4)c4c(sc(C)c4C)-n4c(C)nnc43)NC(=O)CNC2=O)cc1 [Compound 24] ({CH2CO}-[Tle][Hyp]Y(Me)G[dDap](JQ1acid)[dC]-NH2; thioether N-6)
> 20	Cc1ncsc1-c1ccc([C@@H]2NC(=O)[C@@H]3C[C@@H](O)CN3C(=O)[C@H](C(C)(C)C)NC(=O)CSC[C@H](C(N)=O)NC(=O)[C@@H](CNC(=O)C[C@@H]3N=C(c4ccc(Cl)cc4)c4c(sc(C)c4C)-n4c(C)nnc43)NC(=O)[C@@H](C)NC2=O)cc1 [Compound 31] ({CH2CO}-[Tle][Hyp][Phg(4-(4-Me-thiazol-5-yl))][dA][dDap](JQ1acid)[dC]-NH2; thioether N-6)
> 20	Cc1ncsc1-c1ccc([C@H]2NC(=O)[C@@H]3C[C@@H](O)CN3C(=O)[C@H](C(C)(C)C)NC(=O)CSC[C@H](C(N)=O)NC(=O)[C@@H](CNC(=O)C[C@@H]3N=C(c4ccc(Cl)cc4)c4c(sc(C)c4C)-n4c(C)nnc43)NC(=O)[C@H](C)NC2=O)cc1 [Compound 12] ({CH2CO}-[Tle][Hyp][dPhg(4-(4-Me-thiazol-5-yl))]A[dDap](JQ1acid)[dC]-NH2; thioether N-6)
< 20	Cc1sc2c(c1C)C(c1ccc(Cl)cc1)=N[C@@H](CC(=O)NC[C@H]1NC(=O)CNC(=O)[C@H](Cc3ccc(-c4ccccc4)cc3)NC(=O)[C@@H]3C[C@@H](O)CN3C(=O)[C@H](C(C)(C)C)NC(=O)CSC[C@H](C(N)=O)NC1=O)c1nnc(C)n1-2 [Compound 19] ({CH2CO}-[Tle][Hyp][Bip]G[dDap](JQ1acid)[dC]-NH2; thioether N-6)
> 20	Cc1sc2c(c1C)C(c1ccc(Cl)cc1)=N[C@@H](CC(=O)NC[C@H]1NC(=O)CNC(=O)C[C@@H](Cc3ccc(-c4ccccc4)cc3)NC(=O)[C@@H]3C[C@@H](O)CN3C(=O)[C@H](C(C)(C)C)NC(=O)COCCNC1=O)c1nnc(C)n1-2 [Compound 64] (cyclo([AEA][Tle][Hyp][X9]G[dDap](JQ1acid)))
< 0.05	CCC(C)(C)[C@@H]1NC(=O)COCCNC(=O)[C@@H](CNC(=O)C[C@@H]2N=C(c3ccc(Cl)cc3)c3c(sc(C)c3C)-n3c(C)nnc32)NC(=O)[C@@H](C)NC(=O)[C@@H](Cc2ccc(-c3ccccc3)cc2)NC(=O)[C@@H]2C[C@@H](O)CN2C1=O [Compound 57] (cyclo([AEA][Ile(3-Me)][Hyp][dBip][dA][dDap](JQ1acid)))
< 1	Cc1sc2c(c1C)C(c1ccc(Cl)cc1)=N[C@@H](CC(=O)NC[C@H]1NC(=O)CCNC(=O)[C@@H](Cc3ccc(-c4ccccc4)cc3)NC(=O)[C@@H]3C[C@@H](O)CN3C(=O)[C@H](C(C)(C)C)NC(=O)COCCNC1=O)c1nnc(C)n1-2 [Compound 62] (cyclo([AEA][Tle][Hyp][dBip][βAla][dDap](JQ1acid)))
> 20	Cc1ncsc1-c1ccc([C@@H]2NC(=O)[C@@H]3C[C@@H](O)CN3C(=O)[C@H](C(C)(C)C)NC(=O)CSCCNC(=O)[C@@H](CNC(=O)C[C@@H]3N=C(c4ccc(Cl)cc4)c4c(sc(C)c4C)-n4c(C)nnc43)NC(=O)CNC2=O)cc1 [Compound 47] (cyclo(G[dDap](JQ1acid)[NHCH2CH2SCH2CO][Tle][Hyp][Phg(4-(4-Me-thiazol-5-yl))]))
